This assay concerns the target T1, IKK2 (Homo sapiens, UniProt O14920).
T1 construct: made in house; host or cells: insect cells (baculovirus, pFastBac; SF9)
T1 sequence (O14920 1-756): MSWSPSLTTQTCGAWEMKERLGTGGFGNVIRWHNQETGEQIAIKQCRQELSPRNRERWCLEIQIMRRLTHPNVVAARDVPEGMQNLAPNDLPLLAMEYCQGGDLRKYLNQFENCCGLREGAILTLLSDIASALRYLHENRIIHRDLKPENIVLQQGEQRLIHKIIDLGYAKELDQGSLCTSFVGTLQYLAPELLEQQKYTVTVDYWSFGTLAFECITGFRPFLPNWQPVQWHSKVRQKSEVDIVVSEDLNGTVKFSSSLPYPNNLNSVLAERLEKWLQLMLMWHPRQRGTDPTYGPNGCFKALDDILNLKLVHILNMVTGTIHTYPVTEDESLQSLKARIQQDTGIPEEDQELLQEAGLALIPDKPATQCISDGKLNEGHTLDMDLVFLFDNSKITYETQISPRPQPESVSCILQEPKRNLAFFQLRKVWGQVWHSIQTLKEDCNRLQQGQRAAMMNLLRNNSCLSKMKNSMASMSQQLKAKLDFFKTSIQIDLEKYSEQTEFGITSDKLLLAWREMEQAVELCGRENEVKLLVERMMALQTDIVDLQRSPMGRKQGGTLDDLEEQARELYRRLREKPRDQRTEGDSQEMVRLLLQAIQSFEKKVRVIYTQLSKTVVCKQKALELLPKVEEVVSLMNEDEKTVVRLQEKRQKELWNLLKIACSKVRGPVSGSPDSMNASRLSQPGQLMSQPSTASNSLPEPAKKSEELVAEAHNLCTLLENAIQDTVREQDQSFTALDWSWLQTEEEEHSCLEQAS
The experiment in a line: IKKβ Resin Enzyme Assay (IKK2 resin). The format is biochemical. The source says:
cDNAs of human IKK1 and IKK2 were amplified by reverse transcriptase-polymerase chain reaction from human placental RNA (Clonetech). hIKK1 was subcloned into pFastBac HTa (Life Technologies) and expressed as N-terminal His6-tagged fusion protein. The hIKK2 cDNA was amplified using a reverse oligonucleotide primer which incorporated the peptide sequence for a FLAG-epitope tag at the C-terminus of the IKK2 coding region ([…]). The hIKK2:FLAG cDNA was subcloned into the baculovirus vector pFastBac. The rhIKK2 ([…]) mutant was constructed in the same vector used for wild type rhIKK2 using a QuikChange™ mutagenesis kit (Stratagene). Viral stocks of each construct were used to infect insect cells grown in 40 L suspension culture. […] Cell lysates were stored at −80° C. until purification of the recombinant proteins was undertaken as described below.
A 10-liter culture of baculovirus-expressing IKK2 tagged with FLAG peptide was centrifuged and the cell pellet (MOI=0.1 and I=72 hrs) was re-suspended in buffer A. These cells were microfluidized, and centrifuged at 100,000×g for 45 min. Supernatant was passed over a G-25 column equilibrated with Buffer A. Protein peak was collected and incubated with anti-FLAG affinity resin on a rotator overnight in buffer B. The resin was washed in batch with 10–15 bed volumes of buffer C. Washed resin was poured into a column and rhIKK2 homodimer was eluted using 5 bed volumes of buffer B containing FLAG peptide. 5 mM DTT, 0.1% NP-40 and BSA (concentrated to 0.1% in final amount) was added to the eluted enzyme before concentrating in using an Amicon membrane with a molecular weight cut-off of 30 kDa. Enzyme was aliquoted and stored at −80° C.
IKKβ kinase activity was measured using a biotinylated IκBα peptide ([…]32-Gly-Leu-Asp-Ser36-Met-Lys-Asp-Glu-Glu) (American Peptide Co.). […] ATP (Amersham) (about 1×10^5 cpm), 1 μM ATP (Sigma), 1 mM DTT (Sigma), 2 mM MgCl2 (Sigma), 2 mM MnCl2 (Sigma), 10 mM NaF (Sigma), 25 mM Hepes (Sigma) buffer, pH 7.6 and 20 μl enzyme solution and 10 ul inhibitor in a final volume of 50 μl. After incubation at 25° C. for 30 min, 150 μl resin (Dowex anion-exchange resin AG1X8 200–400 mesh) in 900 mM formate, pH 3.0 was added to each well to stop the reaction. Resin was allowed to settle for one hour and 50 ul of supernatant was removed to a Micolite-2 flat bottom plate (Dynex). 150 μl of scintillation fluid (Microscint 40) (Packard) was added to each well. Incorporation of [γ-^33P] ATP was measured using a Top-Count NXT (Packard).

Setting [1] is: Table 14, read-out: IKK2 Resin IC50.
The mark [2] stands for this setting: Table 4, read-out: IKK2 Resin IC50.
The mark [3] stands for this setting: Table 11, read-out: IKK2 Resin IC50.
Setting [4] is: Table 23, read-out: IKK2 Resin IC50.
[5] abbreviates: Table 3, read-out: IKK Resin IC50.

Each structure is given as a SMILES string. pIC50: −log10 of the molar value. Where two headings read alike, the source gives them in different places.

As for `NC(=O)c1nn(-c2ccc([N+](=O)[O-])cc2)c2c1CCc1ccc(NC(=O)c3ccccc3Cl)cc1-2` [Example 324, 8-[(2-chlorobenzoyl)amino]-1-(4-nitrophenyl)-4,5-dihydro-1H-benzo[g]indazole-3-carboxamide], under setting [1], the pIC50 is no less than 6.00.
Turning to `NC(=O)c1nn(-c2ccc3c(c2)OCO3)c2c1CCc1ccc(NC(=O)c3ccc(Cl)cc3Cl)cc1-2` [Example 195, 1-(1,3-benzodioxol-5-yl)-8-[(2,4-dichlorobenzoyl)amino]-4,5-dihydro-1H-benzo[g]indazole-3-carboxamide], the pIC50 under setting [2] is no less than 6.00.
With `NC(=O)c1nn(-c2ccc(/C=C\CO)cc2)c2c1CCc1ccc(NC(=O)c3cccnc3Cl)cc1-2` [Example 300, 8-{[(2-chloropyridin-3-yl)carbonyl]amino}-1-{4-[(1Z)-3-hydroxyprop-1-enyl]phenyl}-4,5-dihydro-1H-benzo[g]indazole-3-carboxamide], the pIC50 under setting [3] was no less than 6.00.
Regarding `NC(=O)c1nn(-c2ccc3c(c2)OCO3)c2c1CCc1ccc(NC(=O)c3cc(F)c(F)cc3Cl)cc1-2` [Example 166, 1-(1,3-benzodioxol-5-yl)-8-[(2-chloro-4,5-difluorobenzoyl)amino]-4,5-dihydro-1H-benzo[g]indazole-3-carboxamide], under setting [2], the pIC50 is no less than 6.00.
As for `CC1(C)Cc2c(C(N)=O)nn(-c3ccc4c(c3)OCO4)c2-c2cc(NC(=O)c3ccncc3Cl)ccc21` [Example 435, 1-(1,3-benzodioxol-5-yl)-8-[(3-chloroisonicotinoyl)amino]-5,5-dimethyl-4,5-dihydro-1H-benzo[g]indazole-3-carboxamide], where the note is “Table 22, read-out: IKK2 Resin IC50”, the pIC50 is no less than 6.00.
Regarding `NC(=O)c1nn(-c2ccc(F)cc2)c2c1CCc1ccc(NC(=O)c3cccc(Cl)c3Cl)cc1-2` [Example 238, 8-[(2,3-dichlorobenzoyl)amino]-1-(4-fluorophenyl)-4,5-dihydro-1Hbenzo[g]indazole-3-carboxamide], the pIC50 (Table 6, read-out: IKK2 Resin IC 50) was no less than 6.00.
Take `CC(=O)CCc1ccc(-n2nc(C(N)=O)c3c2-c2cc(NC(=O)c4ccccc4Cl)ccc2CC3)cc1` [Example 296, 8-[(2-chlorobenzoyl)amino]-1-[4-(3-oxobutyl)phenyl]-4,5-dihydro-1H-benzo[g]indazole-3-carboxamide]: under setting [3], the pIC50 is no less than 6.00.
`NC(=O)c1nn(-c2ccc3c(c2)OCO3)c2c1CCc1ccc(NC(=O)c3ccncc3)cc1-2` [Example 196, 1-(1,3-benzodioxol-5-yl)-8-(isonicotinoylamino)-4,5-dihydro-1H-benzo[g]indazole-3-carboxamide]: the pIC50 under setting [2] is no less than 6.00.
On to `CN1CCN(c2ccc(Cl)c(C(=O)Nc3ccc4c(c3)-c3c(c(C(N)=O)nn3-c3ccc(F)cc3)CC4)n2)CC1` [Example 256, 8-({[3-chloro-6-(4-methylpiperazin-1-yl)pyridin-2-yl]carbonyl}amino)-1-(4-fluorophenyl)-4,5-dihydro-1H-benzo[g]indazole-3-carboxamide], for which, under “Table 7, read-out: IKK2 Resin IC50”, the pIC50 is no less than 6.00.
Consider `NC(=O)c1nn(-c2ccccc2)c2c1CCc1ccc(NC(=O)c3ccncc3Cl)cc1-2` [Example 331, 8-[(3-chloroisonicotinoyl)amino]-1-phenyl-4,5-dihydro-1H-benzo[g]indazole-3-carboxamide], for which, under setting [1], the pIC50 is no less than 6.00.
Regarding `CC(C)NCC(=O)Nc1ccc2c(c1)-c1c(c(C(N)=O)nn1-c1ccc3c(c1)OCO3)CC2` [Example 444, 1-(1,3-benzodioxol-5-yl)-8-[(N-isopropylglycyl)amino]-4,5-dihydro-1H-benzo[g]indazole-3-carboxamide], under setting [4], the pIC50 was no less than 6.00.
With `CS(=O)(=O)c1ccc(-n2nc(C(N)=O)c3c2-c2cc(NC(=O)c4ccc(C#N)cc4)ccc2CC3)cc1` [Example 144, 8-[(4-cyanobenzoyl)amino]-1-[4-(methylsulfonyl)phenyl]-4,5-dihydro-1H-benzo[g]indazole-3-carboxaniide], the pIC50 under setting [5] was no less than 6.00.
Turning to `Cc1ccc(C(=O)Nc2ccc3c(c2)-c2c(c(C(N)=O)nn2-c2ccc(S(C)(=O)=O)cc2)CC3)c(Cl)n1` [Example 138, 8-{[(2-chloro-6-methylpyridin-3-yl)carbonyl]amino}-1-[4-(methylsulfonyl)phenyl]-4,5-dihydro-1H-benzo[g]indazole-3-carboxamide], the pIC50 under setting [5] is no less than 6.00.
Consider `CS(=O)(=O)/C=C/c1ccc(-n2nc(C(N)=O)c3c2-c2cc(NC(=O)c4ccccc4Cl)ccc2CC3)cc1` [Example 297, 8-[(2-chlorobenzoyl)amino]-1-{4-[(E)-2-(methylsulfonyl)ethenyl]phenyl}-4,5-dihydro-1H-benzo[g]indazole-3-carboxamide], for which the pIC50 under setting [3] was no less than 6.00.
Take `CN(C)S(=O)(=O)c1ccc(-n2nc(C(N)=O)c3c2-c2cc(NS(C)(=O)=O)ccc2CC3)cc1` [Example 426, 1-{4-[(dimethylamino)sulfonyl]phenyl}-8-[(methylsulfonyl)amino]-4,5-dihydro-1H-benzo[g]indazole-3-carboxamide]: the pIC50 (Table 21, read-out: IKK2 Resin IC50) is no less than 6.00.
On to `NC(=O)c1nn(-c2ccc(F)cc2)c2c1CCc1ccc(NC(=O)CNC3CCC3)cc1-2` [Example 452, 8-[(N-cyclobutylglycyl)amino]-1-(4-fluorophenyl)-4,5-dihydro-1H-benzo[g]indazole-3-carboxamide], for which the pIC50 under setting [4] was no less than 6.00.
As for `NC(=O)c1nn(-c2ccc(F)c(F)c2)c2c1CCc1ccc(NC(=O)c3ccncc3Cl)cc1-2` [Example 354, 8-[(3-chloroisonicotinoyl)amino]-1-(3,4-difluorophenyl)-4,5-dihydro-1H-benzo[g]indazole-3-carboxamide], the pIC50 under setting [1] is no less than 6.00.
With `CS(=O)(=O)Nc1ccc(-n2nc(C(N)=O)c3c2-c2cc(NC(=O)c4ccccc4Cl)ccc2CC3)cc1` [Example 372, 8-[(2-chlorobenzoyl)amino]-1-{4-[(methylsulfonyl)amino]phenyl}-4,5-dihydro-1H-benzo[g]indazole-3-carboxamide], the pIC50 (Table 15, read-out: IKK2 Resin IC50) is no less than 6.00.
As for `NC(=O)c1nn(-c2ccc(/C=C/C(=O)O)cc2)c2c1CCc1ccc(NC(=O)c3ccccc3Cl)cc1-2` [Example 291, (2E)-3-(4-{3-(aminocarbonyl)-8-[(2-chlorobenzoyl)amino]-4,5-dihydro-1H-benzo[g]indazol-1-yl}phenyl)prop-2-enoic acid], the pIC50 under setting [3] was no less than 6.00.
Take `CCS(=O)(=O)c1ccc(-n2nc(C(N)=O)c3c2-c2cc(NC(=O)c4cc(NC(=O)OC(C)(C)C)ccc4Cl)ccc2CC3)cc1` [Example 397, tert-butyl 3-[({3-(aminocarbonyl)-1-[4-(ethylsulfonyl)phenyl]-4,5-dihydro-1H-benzo[g]indazol-8-yl}amino)carbonyl]-4-chlorophenylcarbamate]: where the note is “Table 18, read-out: IKK2 Resin IC50”, the pIC50 was no less than 6.00.
On to `NC(=O)c1nn(-c2ccc(O)cc2)c2c1CCc1ccc(NC(=O)c3ccccc3Cl)cc1-2` [Example 261, 8-[(2-chlorobenzoyl)amino]-1-(4-hydroxyphenyl)-4,5-dihydro-1H-benzo[g]indazole-3-carboxamide], for which the pIC50 (Table 8, read-out: IKK2 Resin IC50) is no less than 6.00.
